Here are results for twelve compounds from ChEMBL document CHEMBL1201862, “PubChem BioAssay data set” (2004).

Holding throughout (assay): growth of human tumour cells (NCI), 48 h
Experiment [1] has as its system CCRF-CEM.
Experiment [2] relates to M14.
In experiment [3] the test system is MOLT-4.
Experiment [4] deals with A549.
For experiment [5], the system named is SW-620.
Experiment [6] relates to M19-MEL.
For experiment [7], the system named is SK-MEL-28.
Experiment [8] concerns SNB-19.
The subject of experiment [9] is HCT-15.
For experiment [10], the system named is NCI-H226.
Experiment [11] concerns SF-268.
The test system of experiment [12] is NCI-H23.
In experiment [13] the test system is SK-MEL-5.
Experiment [14] relates to HL-60.
Experiment [15] concerns TK-10.
In experiment [16] the test system is OVCAR-3.
The test system of experiment [17] is SK-MEL-2.
The subject of experiment [18] is MDA-N.
In experiment [19] the test system is PC-3.
For experiment [20], the system named is NCI/ADR-RES.

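96-well plates; 48 h exposure; 5 concentrations. Endpoints by linear interpolation between flanking doses. Not reached: highest tested concentration assigned. GI50 = concentration required for 50% inhibition of growth.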 Active and inactive are the calls of the source. No stated cut-off is given here; in the data, active = GI50 up to about 1.1 µM and inactive = higher.

For the compound `Cc1cccc(NC(=O)c2cc3cc(/N=N/c4ccccc4Cl)ccc3oc2=O)c1`, the GI50 in experiment [1] was 14 µM (inactive); in experiment [2] it was 26.8 µM (inactive); in [3], 22.8 µM (inactive); in [4], 77.3 µM (inactive); in experiment [5], 54.1 µM (inactive); in [6], 32.1 µM (inactive). For the same compound, the GI50 is 35.4 µM (inactive) in [7]; 49 µM (inactive) in experiment [8]; 27.4 µM in experiment [9]; 13 µM (inactive) in [10]; 23.3 µM (inactive) in [11]; 19.7 µM (inactive) in experiment [12]. For the same compound, the GI50 in [13] was 19.8 µM (inactive); in experiment [14], > 100 µM (inactive); in [15], 36 µM (inactive); in experiment [16], 26.8 µM (inactive).
As to `O=S1(=O)OCCOS(=O)(=O)C1Cc1ccccc1`, the GI50 in [3] is 25.3 µM (inactive); in [4], 44.3 µM (inactive); in [5], 65 µM (inactive); in experiment [6], 39.5 µM (inactive); in experiment [7] it was > 100 µM (inactive); in experiment [8] it was 70.3 µM (inactive). Besides, the GI50 in [10] was 46.1 µM (inactive); in [11], 39.1 µM (inactive); in [12] it was 64.1 µM (inactive); in experiment [14], 21.4 µM (inactive); in experiment [15], > 100 µM (inactive); in experiment [16], 20.8 µM (inactive).
For `CCOP(=O)(OCC)C1C(=O)O[C@H]2CCCC[C@@H]12` (some centres not stated), the GI50 in experiment [1], in [2], in experiment [3], in [4], in experiment [5] and in experiment [6] was > 100 µM (inactive) each time. The GI50 in experiment [7] is > 100 µM (inactive); in experiment [8], > 100 µM (inactive); in experiment [9], above 100 µM; in experiment [11] it was > 100 µM (inactive); in experiment [17], > 100 µM (inactive); in experiment [12] it was > 100 µM (inactive). Besides, the GI50 in [13], in experiment [15] and in [16] was > 100 µM (inactive) in each case.
For `c1ccc(COc2nc3cc(C45CC6CC(CC(C6)C4)C5)ccc3[nH]2)cc1`, the GI50 in [1] was 10.2 µM (inactive); in experiment [2] it was 17.2 µM (inactive); in experiment [3], 3.35 µM (inactive); in [18], 11.9 µM (inactive); in experiment [4] it was 16.5 µM (inactive); in [5], 21.4 µM (inactive). Moreover, the GI50 in experiment [7] was 17.1 µM (inactive); in experiment [19], 9.06 µM (inactive); in [8] it was 24.8 µM (inactive); in [9], 3.72 µM; in experiment [10] it was 12 µM (inactive); in experiment [11], 31.3 µM (inactive). For the same compound, the GI50 was 7.45 µM (inactive) in experiment [20]; 11.2 µM (inactive) in experiment [17]; 6.3 µM (inactive) in [12]; 5.53 µM (inactive) in experiment [13]; 9.38 µM (inactive) in experiment [14]; 4.65 µM (inactive) in experiment [15]. For the same compound, the GI50 in experiment [16] was 22.9 µM (inactive).
Turning to `CC1=C(C(=O)OCCc2ccc([N+](=O)[O-])cc2)C(c2cccc([N+](=O)[O-])c2)C(C(=O)OC(C)C)=C(C)N1` (configuration not stated), the GI50 is 3.57 µM (inactive) in experiment [1]; 3.7 µM (inactive) in experiment [2]; 2.63 µM (inactive) in [3]; 5.11 µM (inactive) in experiment [18]; 4.99 µM (inactive) in experiment [4]; 6.68 µM (inactive) in experiment [5]. Further, the GI50 was 80 µM (inactive) in [7]; 2.26 µM (inactive) in experiment [19]; 12.7 µM (inactive) in experiment [8]; 5.47 µM in experiment [9]; 2.86 µM (inactive) in experiment [10]; 6.4 µM (inactive) in [11]. The GI50 in [20] was 3.33 µM (inactive); in [17], 7.62 µM (inactive); in [12], 4.3 µM (inactive); in [13], 2.62 µM (inactive); in experiment [14], 3.52 µM (inactive); in experiment [15], 44.4 µM (inactive). Moreover, the GI50 in experiment [16] is 7.59 µM (inactive).
Take `CC(=O)OCC(=O)[C@@]12OC(C)(C)O[C@@H]1C[C@H]1[C@@H]3CC=C4C[C@@H](O)CC[C@]4(C)[C@H]3CC[C@@]12C`: the GI50 in experiment [1], in experiment [2], in experiment [3], in experiment [18], in [4] and in experiment [5] was > 100 µM (inactive) in each case. In addition, the GI50 in experiment [7] was > 100 µM (inactive); in [19] it was > 100 µM (inactive); in experiment [8] it was 39.9 µM (inactive); in [9], above 100 µM; in experiment [10] it was > 100 µM (inactive); in [11] it was 31.6 µM (inactive). For the same compound, the GI50 was 66.5 µM (inactive) in [20]; > 100 µM (inactive) in [17]; 57.7 µM (inactive) in experiment [12]; > 100 µM (inactive) in [13]; > 100 µM (inactive) in [14]; 40.3 µM (inactive) in experiment [15]. Moreover, the GI50 in [16] is > 100 µM (inactive).
As to `CC1=CC(N2C(=O)C(C)=CC2O)NC1=O` (configuration not stated), the GI50 in [2], in experiment [4], in experiment [5], in [6], in experiment [7] and in experiment [8] was > 100 µM (inactive) each time. The GI50 in experiment [10], in experiment [11], in [17], in [12], in experiment [14] and in [15] was > 100 µM (inactive) each time. Besides, the GI50 in experiment [16] is > 100 µM (inactive).
With `Cc1cc(N(CCC#N)CCC#N)ccc1/C=C1/CN(N2C(=O)/C(=C/c3ccc(N(CCC#N)CCC#N)cc3C)N=C2c2ccccc2)C(c2ccccc2)=N1`, the GI50 in experiment [1] was > 100 µM (inactive); in experiment [2] it was 90.4 µM (inactive); in experiment [3] it was > 100 µM (inactive); in [4], > 100 µM (inactive); in experiment [5] it was > 100 µM (inactive); in experiment [6] it was > 100 µM (inactive). Besides, the GI50 in experiment [7] is > 100 µM (inactive); in [8], 41 µM (inactive); in experiment [9], above 100 µM; in experiment [10], > 100 µM (inactive); in [11], > 100 µM (inactive); in [12], 42.8 µM (inactive). Also, the GI50 in [13] was > 100 µM (inactive); in experiment [14] it was > 100 µM (inactive); in experiment [15] it was 26.5 µM (inactive); in experiment [16], > 100 µM (inactive).
`COc1nc2c(nc(N)n2C2OCC(O)C(O)C2O)c(=O)n1C` (configuration not stated): the GI50 in experiment [1], in experiment [2], in experiment [3], in [4], in experiment [5] and in experiment [6] was > 100 µM (inactive) in each case. The GI50 in [7], in [8], in [10], in experiment [11], in [12] and in experiment [13] was > 100 µM (inactive) throughout. The GI50 in experiment [14], in experiment [15] and in experiment [16] was > 100 µM (inactive) in each case.
Consider `COC(=O)CCSC(=O)Nc1ccc(/N=N/c2ccccc2)cc1`, for which the GI50 is 50.1 µM (inactive) in [1]; 70 µM (inactive) in experiment [2]; 27.2 µM (inactive) in [3]; 76.4 µM (inactive) in [4]; > 100 µM (inactive) in experiment [5]; 45.4 µM (inactive) in experiment [6]. The GI50 was > 100 µM (inactive) in [7]; 32.1 µM (inactive) in experiment [8]; 36.1 µM in experiment [9]; 60.4 µM (inactive) in experiment [10]; > 100 µM (inactive) in experiment [11]; 34.2 µM (inactive) in experiment [12]. Besides, the values for the GI50 in experiment [13], in experiment [15] and in [16] were 51.9 µM (inactive), 61.8 µM (inactive) and 29.5 µM (inactive), respectively.
On to `Cc1cc(CC(=O)NCCO)n(CCO)c(=O)c1`, for which the GI50 in [1], in [2], in experiment [3], in [4], in experiment [5] and in experiment [6] was > 100 µM (inactive) throughout. Moreover, the GI50 in experiment [7], in [8], in experiment [11], in experiment [12], in experiment [13] and in experiment [14] was > 100 µM (inactive) each time. Further, the GI50 in experiment [15] and in experiment [16] was > 100 µM (inactive) in each case.
As to `Cc1c(F)c(N)c2c(=O)cc(-c3ccc(N)c(F)c3)oc2c1F` [AMINOFLAVONE], the GI50 in experiment [1] was 28 µM (inactive); in experiment [2] it was 57.3 µM (inactive); in [3] it was 46.9 µM (inactive); in experiment [18], 29.4 µM (inactive); in [4], 2.09 µM (inactive); in [5], 0.0305 µM (active). Further, the GI50 in experiment [7] is 45.1 µM (inactive); in [19], 20.7 µM (inactive); in experiment [8] it was 21 µM (inactive); in [9] it was 33.3 µM; in experiment [10], 3.52 µM (inactive); in experiment [11], 23.1 µM (inactive). Also, the GI50 was 13.9 µM (inactive) in experiment [20]; 40.6 µM (inactive) in [17]; 19.6 µM (inactive) in experiment [12]; 20.4 µM (inactive) in experiment [13]; 44.8 µM (inactive) in experiment [14]; 0.258 µM (active) in experiment [15]. Also, in experiment [16], the GI50 is 0.458 µM (active).
